Columns and labels:
Format in all cases: in vivo
[1] = tested on: Tobacco Cutworm (Spodoptera litura) Larvae; assay: Test against tobacco cutworm (Spodoptera litura) larvae, leaf dip; settings: active compound concentration 100 ppm; third-instar larvae; after 7 days
Method: (§1) Unless nomentioned otherwise, the test solutions were prepared as follows:
(§2) Containing as solvent: Dimethylformamide, 3 parts by weight; and as emulsifier: Polyoxyethylene alkyl phenyl ether, 1 part by weight
(§3) To prepare the test solution, 1 part by weight of an active compound is mixed with the above-mentioned amount of solvent containing the above-mentioned amount of emulsifier, and the mixture is diluted with water to the desired concentration.
The leaves of sweet potato were immersed in the test solution at the appropriate concentration, and the leaves were dried in air. The leaves were then placed in a petri dish having a diameter of 9 cm, and ten third-instar larvae of tobacco cutworm were released therein. The petri dish was placed in a temperature chamber at 25° C. After 2 days and 4 days sweet potato leaves were additionally added. After 7 days, the number of dead larvae was counted, to calculate the insecticidal activity. An insecticidal activity of 100% means that all larvae were killed, whereas an insecticidal activity of 0% means that no larva was killed. In the current test, the results of two petri dishes for each partition were averaged.

[2] = tested on: Two-Spotted Spider Mite (Tetranvchus urticae); assay: Test against two-spotted spider mite, spray on kidney bean; settings: active compound concentration 100 ppm; adult mites; after 7 days
Method: as §1, §2, §3
50 to 100 adult two-spotted spider mites were inoculated onto the leaves of kidney beans at the two-true leaf stage, which plant had been cultivated in a pot having a diameter of 6 cm. After one day, test solution at the appropriate concentration was sprayed thereon in a sufficient amount using a spray gun. After the spraying, the plant pot was placed inside a greenhouse, and after 7 days, the acaricidal activity was calculated. An acaricidal activity of 100% means that all mites were killed, whereas an acaricidal activity of 0% means that no mite was killed.

[3] = tested on: Cucurbit Leaf Beetle (Aulacophora femoralis); assay: Test against cucurbit leaf beetle, cucumber leaf dip; settings: active compound concentration 100 ppm; second-instar larvae; after 7 days
Method: as §1, §2, §3
Cucumber leaves were immersed in the test solution at the appropriate concentration, and the leaves were dried in air. The leaves were then placed in a plastic cup containing aseptically sterilized black soil, and five second-instar larvae of cucurbit leaf beetle were released therein. After 7 days, the number of dead larvae was counted, and thus the insecticidal activity was calculated. An insecticidal activity of 100% means that all beetles were killed, whereas an insecticidal activity of 0% means that no beetle was killed.

[4] = tested on: Strain of Green Peach Aphid (Mvzus persicas) which is Resistant to Organic Phosphorus and Carbamate Agents; assay: Test against resistant green peach aphid, spray on egg plant; settings: active compound concentration 500 ppm; after 7 days
Method: as §1, §2, §3
About 30 to 50 of the resistant green peach aphids were inoculated per seedling, onto the leaves of egg plant at the two-true leaf stage, which plant had been cultivated in a pot having a diameter of 6 cm. One day after the inoculation, the test solution at the appropriate concentration was sprayed thereon in a sufficient amount using a spray gun. After the spraying, the plant pot was placed in a greenhouse at 28° C., and after 7 days, the insecticidal activity was calculated. An insecticidal activity of 100% means that all aphids were killed, whereas an insecticidal activity of […] means that no aphid was killed. The test was repeated two times.

CSCC(=O)NCc1ccc(C2=NCC(c3cc(Cl)c(Cl)c(Cl)c3)(C(F)(F)F)C2)cc1C(F)(F)F (racemic) [2-209]
100%: insecticidal activity [1] | acaricidal activity [2] | insecticidal activity [3] | insecticidal activity [4]

O=C(CC(F)(F)F)NCc1ccc(C2=NCC(c3cc(Cl)cc(Cl)c3)(C(F)(F)F)C2)cc1C(F)(F)F (racemic) [2-211]
100%: acaricidal activity [2] | insecticidal activity [3] | insecticidal activity [4]

O=C(NCc1ccc(C2=NCC(c3cc(Cl)cc(Cl)c3)(C(F)(F)F)C2)cc1C(F)(F)F)C1CC1 (racemic) [2-212]
100%: acaricidal activity [2] | insecticidal activity [3] | insecticidal activity [4]

N#Cc1cc(C2=NCC(c3cc(C(F)(F)F)cc(C(F)(F)F)c3)(C(F)(F)F)C2)ccc1-n1cncn1 (centres unmarked) [1-72]
100%: insecticidal activity [1] | acaricidal activity [2] | insecticidal activity [3] | insecticidal activity [4]

N#Cc1cc(C2=NCC(c3cc(Br)cc(Br)c3)(C(F)(F)F)C2)ccc1-n1cncn1 (centres unmarked) [1-94]
100%: insecticidal activity [1] | acaricidal activity [2] | insecticidal activity [3] | insecticidal activity [4]

N#Cc1cc(C2=NCC(c3cc(Cl)cc(C(F)(F)F)c3)(C(F)(F)F)C2)ccc1-n1cncn1 (centres unmarked) [1-95]
100%: insecticidal activity [1] | acaricidal activity [2] | insecticidal activity [3] | insecticidal activity [4]

CCC(=O)NCc1ccc(C2=NCC(c3cc(Cl)cc(Cl)c3)(C(F)(F)F)C2)cc1Br (centres unmarked) [2-19]
100%: insecticidal activity [1] | insecticidal activity [3]

O=C(NCc1ccc(C2=NCC(c3cc(Cl)cc(Cl)c3)(C(F)(F)F)C2)cc1Br)C1CC1 (centres unmarked) [2-153]
100%: insecticidal activity [1] | insecticidal activity [3]

O=C(CC(F)(F)F)NCc1ccc(C2=NCC(c3cc(Cl)cc(Cl)c3)(C(F)(F)F)C2)cc1Br (centres unmarked) [2-154]
100%: insecticidal activity [1] | acaricidal activity [2] | insecticidal activity [3]

CC(=O)NCc1ccc(C2=NCC(c3cc(Cl)c(Cl)c(Cl)c3)(C(F)(F)F)C2)cc1Cl (centres unmarked) [2-156]
100%: insecticidal activity [1] | acaricidal activity [2] | insecticidal activity [3] | insecticidal activity [4]

CCC(=O)NCc1ccc(C2=NCC(c3cc(Cl)c(Cl)c(Cl)c3)(C(F)(F)F)C2)cc1Cl (centres unmarked) [2-157]
100%: insecticidal activity [1] | acaricidal activity [2] | insecticidal activity [3] | insecticidal activity [4]

O=C(NCc1ccc(C2=NCC(c3cc(Cl)c(Cl)c(Cl)c3)(C(F)(F)F)C2)cc1Cl)C1CC1 (centres unmarked) [2-158]
100%: insecticidal activity [1] | acaricidal activity [2] | insecticidal activity [3] | insecticidal activity [4]

O=C(CC(F)(F)F)NCc1ccc(C2=NCC(c3cc(Cl)c(Cl)c(Cl)c3)(C(F)(F)F)C2)cc1Cl (centres unmarked) [2-159]
100%: insecticidal activity [1] | acaricidal activity [2] | insecticidal activity [3] | insecticidal activity [4]

CC(=O)NCc1ccc(C2=NCC(c3cc(Cl)cc(Cl)c3)(C(F)(F)F)C2)cc1C(F)(F)F (centres unmarked) [2-160]
100%: insecticidal activity [1] | acaricidal activity [2] | insecticidal activity [3] | insecticidal activity [4]

CC(=O)NCc1ccc(C2=NCC(c3cc(Cl)c(Cl)c(Cl)c3)(C(F)(F)F)C2)cc1C(F)(F)F (centres unmarked) [2-161]
100%: insecticidal activity [1] | acaricidal activity [2] | insecticidal activity [3] | insecticidal activity [4]

CCC(=O)NCc1ccc(C2=NCC(c3cc(Cl)c(Cl)c(Cl)c3)(C(F)(F)F)C2)cc1C(F)(F)F (centres unmarked) [2-162]
100%: insecticidal activity [1] | acaricidal activity [2] | insecticidal activity [3] | insecticidal activity [4]

O=C(NCc1ccc(C2=NCC(c3cc(Cl)c(Cl)c(Cl)c3)(C(F)(F)F)C2)cc1C(F)(F)F)C1CC1 (centres unmarked) [2-163]
100%: insecticidal activity [1] | acaricidal activity [2] | insecticidal activity [3] | insecticidal activity [4]

O=C(CC(F)(F)F)NCc1ccc(C2=NCC(c3cc(Cl)c(Cl)c(Cl)c3)(C(F)(F)F)C2)cc1C(F)(F)F (centres unmarked) [2-164]
100%: insecticidal activity [1] | acaricidal activity [2] | insecticidal activity [3] | insecticidal activity [4]

CC(=O)NCc1ccc(C2=NCC(c3cc(C(F)(F)F)cc(C(F)(F)F)c3)(C(F)(F)F)C2)cc1C(F)(F)F (centres unmarked) [2-165]
100%: insecticidal activity [1] | acaricidal activity [2] | insecticidal activity [3] | insecticidal activity [4]

CCC(=O)NCc1ccc(C2=NCC(c3cc(C(F)(F)F)cc(C(F)(F)F)c3)(C(F)(F)F)C2)cc1C(F)(F)F (centres unmarked) [2-166]
100%: insecticidal activity [1] | acaricidal activity [2] | insecticidal activity [3] | insecticidal activity [4]

O=C(NCc1ccc(C2=NCC(c3cc(C(F)(F)F)cc(C(F)(F)F)c3)(C(F)(F)F)C2)cc1C(F)(F)F)C1CC1 (centres unmarked) [2-167]
100%: insecticidal activity [1] | acaricidal activity [2] | insecticidal activity [3] | insecticidal activity [4]

O=C(CC(F)(F)F)NCc1ccc(C2=NCC(c3cc(C(F)(F)F)cc(C(F)(F)F)c3)(C(F)(F)F)C2)cc1C(F)(F)F (centres unmarked) [2-168]
100%: insecticidal activity [1] | acaricidal activity [2] | insecticidal activity [3] | insecticidal activity [4]

O=C(NCc1ccc(C2=NCC(c3cc(Cl)c(Cl)c(Cl)c3)(C(F)(F)F)C2)cc1Br)C1CC1 (centres unmarked) [2-170]
100%: insecticidal activity [1] | acaricidal activity [2] | insecticidal activity [3] | insecticidal activity [4]

O=C(CC(F)(F)F)NCc1ccc(C2=NCC(c3cc(Cl)c(Cl)c(Cl)c3)(C(F)(F)F)C2)cc1Br (centres unmarked) [2-171]
100%: insecticidal activity [1] | acaricidal activity [2] | insecticidal activity [3] | insecticidal activity [4]

O=C(NCc1ccc(C2=NCC(c3cc(Cl)c(Cl)c(C(F)(F)F)c3)(C(F)(F)F)C2)cc1Br)C1CC1 (centres unmarked) [2-172]
100%: insecticidal activity [1] | acaricidal activity [2] | insecticidal activity [3] | insecticidal activity [4]

O=C(CC(F)(F)F)NCc1ccc(C2=NCC(c3cc(Cl)c(Cl)c(C(F)(F)F)c3)(C(F)(F)F)C2)cc1Br (centres unmarked) [2-173]
100%: insecticidal activity [1] | acaricidal activity [2] | insecticidal activity [3] | insecticidal activity [4]

O=C(NCc1ccc(C2=NCC(c3cc(C(F)(F)F)cc(C(F)(F)F)c3)(C(F)(F)F)C2)cc1Br)C1CC1 (centres unmarked) [2-179]
100%: insecticidal activity [1] | acaricidal activity [2] | insecticidal activity [3] | insecticidal activity [4]

O=C(CC(F)(F)F)NCc1ccc(C2=NCC(c3cc(C(F)(F)F)cc(C(F)(F)F)c3)(C(F)(F)F)C2)cc1Br (centres unmarked) [2-180]
100%: insecticidal activity [1] | acaricidal activity [2] | insecticidal activity [3] | insecticidal activity [4]

CCNC(=O)NCc1ccc(C2=NCC(c3cc(Cl)c(Cl)c(Cl)c3)(C(F)(F)F)C2)cc1Br (centres unmarked) [2-195]
100%: insecticidal activity [1] | acaricidal activity [2] | insecticidal activity [3] | insecticidal activity [4]

CCC(=O)NCc1ccc(C2=NCC(c3cc(Cl)c(Cl)c(C(F)(F)F)c3)(C(F)(F)F)C2)cc1C(F)(F)F (centres unmarked) [2-205]
100%: insecticidal activity [1] | acaricidal activity [2] | insecticidal activity [3] | insecticidal activity [4]

CC(=O)NCc1ccc(C2=NCC(c3cc(Cl)c(Cl)c(Cl)c3)(C(F)(F)F)C2)c2ccccc12 (centres unmarked) [11-5]
100%: insecticidal activity [1] | acaricidal activity [2] | insecticidal activity [3] | insecticidal activity [4]

CCC(=O)NCc1ccc(C2=NCC(c3cc(Cl)c(Cl)c(Cl)c3)(C(F)(F)F)C2)c2ccccc12 (centres unmarked) [11-6]
100%: insecticidal activity [1] | acaricidal activity [2] | insecticidal activity [3] | insecticidal activity [4]

O=C(NCc1ccc(C2=NCC(c3cc(Cl)c(Cl)c(Cl)c3)(C(F)(F)F)C2)c2ccccc12)C1CC1 (centres unmarked) [11-7]
100%: insecticidal activity [1] | acaricidal activity [2] | insecticidal activity [3] | insecticidal activity [4]

Reference: patent US8304371B2, “Insecticidal arylpyrrolines” (Bayer Cropscience AG, priority 2008, dated 2012)
